Six molecules from US6664096B2, “Methods for improved diagnosis and treatment of mycobacterial infections” (priority 2000, dated 2003) can be followed below.

Assay type in all cases: cell-based
The subject of assay [1] is M. tuberculosis H37Ra. Put plainly: Resuscitation of 6 month old culture by phospholipids, CFU on 7H11 agar. To be noted: for CFU/ml: 4 μg/ml, 6 month old cells, 7H11 agar, 3 weeks. As to the method:
M. tuberculosis H37Ra cultures were grown in 7H9 medium containing Tween 80 (0.05%) and ADC (albumin-dextrose-catalase) enrichment at 37° C. for various periods of time as standing batch cultures. Cultures of varying age up to one year were used for the resuscitation experiments. Resuscitation of dormant M. tuberculosis by phosphatidylserine was performed as follows. A 6 month old M. tuberculosis H37Ra culture was washed and resuspended in 7H9 medium followed by plating at different dilutions on 7H11 agar plates containing 4 μg/ml phosphatidylserine (derived from bovine brain, containing a mixture of two unknown fatty acyl groups, Sigma Chemical Co.) or phosphatidylserine dioleoyl. The plates were incubated at 37° C. for 3 weeks when the CFU was determined. Data represent average of duplicate samples.
To confirm that a phospholipid was responsible for activity, we first tested commercially available phosphatidyl-L-serine and a dioleoyl phosphatidyl-L-serine, both of which are precursor of phosphatidylethanolamine and phosphatidylcholine, for resuscitation activity for the 6 month old M. tuberculosis H37Ra cells. Both compounds had significant resuscitation activity over medium control as judged by colony forming units (CFU) assay. Phosphatidyl-L-serine and a dioleoyl phosphatidyl-L-serine at 4 μg/ml gave 1.2×10^7, 2×10^6 CFU/ml, respectively, whereas the medium control produced 3×10^4 CFU/ml.

Assay [2] relates to M. tuberculosis H37Ra. Nature of the assay: Growth of small inocula of fresh 4-week-old culture with phosphatidylserine. To be noted: 5 μg/ml in Sauton's medium, 20 days. As to the method: It is well known that to initiate growth of M. tuberculosis in liquid culture a large inoculum is required (Dubos and Davis, 1946). In a separate experiment involving a fresh 4-week-old M. tuberculosis H37Ra culture, the culture was serially diluted into Sauton's medium (1 ml) alone or into medium containing 5 μg/ml phosphatidylserine at 10^−2, 10^−3, 10^−4, 10^−5, 10^−6, 10^−7 dilutions. The cultures were incubated at 37° C. for 20 days when the visible growth was assessed and the cultures were plated on 7H11 plates, which were incubated at 37° C. for 3 weeks. Phosphatidyl-L-serine allowed small inocula (10^−7 dilution) to form visible growth and CFU on plates, whereas the control culture grew only at 10^−5 dilution.

Assay [3] relates to M. tuberculosis H37Ra. To be noted: 7-month-old culture.
Assay [4] concerns M. tuberculosis H37Ra. To be noted: 7-month-old culture. This is another data set of the same source.
In assay [5] the test system is M. tuberculosis H37Ra. To be noted: 4 week old culture.
The subject of assay [6] is M. tuberculosis H37Ra. To be noted: 7-month-old culture. The source holds these as a separate data set.

Like-named read-outs stand apart in the source and are kept apart here.

For the molecule “phosphatidylglycerol-oleoyl-palmitoyl [reference compound]”, the “resuscitation and growth enhancing activity” value in the assay on M. tuberculosis H37Ra [1] (compared with phosphatidylserine) is recorded as “did not have significant activity”.
On to phosphatidyl-L-serine, for which the CFU/ml in the assay with M. tuberculosis H37Ra [1] is given as 1.2×10^7 CFU/ml. Besides, the “small inocula (dilution) forming visible growth and CFU on plates” value with M. tuberculosis H37Ra [2] is reported as 10^−7.
In the case of `CCCCCCCC/C=C\CCCCCCCC(=O)OC[C@H](COP(=O)(O)OC[C@H](N)C(=O)O)OC(=O)CCCCCCC/C=C\CCCCCCCC` [dioleoyl phosphatidyl-L-serine], the CFU/ml in the assay on M. tuberculosis H37Ra [1] is listed as 2×10^6 CFU/ml.
Consider “NH2-LNATDPGAAAQFNASPVAQSYLRN-OH (H-LNATDPGAAAQFNASPVAQSYLRN-OH; listed as Mycobacterium tuberculosis) [Peptide P2, residues 48-71]”, for which the CFU data in the assay with M. tuberculosis H37Ra [3] (day 5) is 100 × 10^5 CFU/ml; in the assay with M. tuberculosis H37Ra [3] (day 10), 200 × 10^5 CFU/ml. Moreover, the “FDA-EB viability staining (% of viable green cells)” value is listed as 1% with M. tuberculosis H37Ra [4] (day 0), 2% with M. tuberculosis H37Ra [4] (day 5) and 27.5% in the assay on M. tuberculosis H37Ra [4] (day 10). The CFU values is 225000 mL⁻¹ with M. tuberculosis H37Ra [5] (day 3), 500000 mL⁻¹ in the assay with M. tuberculosis H37Ra [5] (day 5), 1.5e+07 mL⁻¹ in the assay on M. tuberculosis H37Ra [5] (day 8) and 7.5e+07 mL⁻¹ in the assay on M. tuberculosis H37Ra [5] (day 11). Further, the “MTT data (OD readings at 570 nm)” value is 0.2609 OD in the assay on M. tuberculosis H37Ra [6] (day 0), 0.6269 OD in the assay on M. tuberculosis H37Ra [6] (day 5) and 1.1567 OD in the assay with M. tuberculosis H37Ra [6] (day 10).
Regarding “NH2-LRNFLAAPPPQRAAMAAQLQAV-OH (H-LRNFLAAPPPQRAAMAAQLQAV-OH; listed as Mycobacterium tuberculosis) [Peptide P3, residues 69-90]”, the results for the CFU data in the assay on M. tuberculosis H37Ra [3] (day 5) and in the assay on M. tuberculosis H37Ra [3] (day 10) were 40 × 10^5 CFU/ml and 800 × 10^5 CFU/ml, respectively. Moreover, the “FDA-EB viability staining (% of viable green cells)” value was found to be 2% with M. tuberculosis H37Ra [4] (day 0), 4.5% in the assay on M. tuberculosis H37Ra [4] (day 5) and 42.5% in the assay with M. tuberculosis H37Ra [4] (day 10). Besides, the CFU values came out at 450000 mL⁻¹ in the assay on M. tuberculosis H37Ra [5] (day 3), 4.5e+07 mL⁻¹ in the assay with M. tuberculosis H37Ra [5] (day 5), 1.5e+08 mL⁻¹ in the assay on M. tuberculosis H37Ra [5] (day 8) and 1.5e+08 mL⁻¹ in the assay with M. tuberculosis H37Ra [5] (day 11). The “MTT data (OD readings at 570 nm)” value stood at 0.3147 OD with M. tuberculosis H37Ra [6] (day 0), 0.6219 OD in the assay on M. tuberculosis H37Ra [6] (day 5) and 1.1917 OD with M. tuberculosis H37Ra [6] (day 10).
For “NH2-AQLQAVPGAAQYIGLVESVAGSCNNY-OH (H-AQLQAVPGAAQYIGLVESVAGSCNNY-OH; listed as Mycobacterium tuberculosis) [Peptide P4, residues 85-110]”, the CFU data in the assay on M. tuberculosis H37Ra [3] (day 5) was 50 × 10^5 CFU/ml; in the assay with M. tuberculosis H37Ra [3] (day 10), 900 × 10^5 CFU/ml. The “FDA-EB viability staining (% of viable green cells)” value stood at 1% in the assay with M. tuberculosis H37Ra [4] (day 0), 11.5% in the assay with M. tuberculosis H37Ra [4] (day 5) and 50% in the assay with M. tuberculosis H37Ra [4] (day 10). Besides, the CFU values is 2e+06 mL⁻¹ in the assay on M. tuberculosis H37Ra [5] (day 3), 3.25e+06 mL⁻¹ in the assay on M. tuberculosis H37Ra [5] (day 5), 7.5e+07 mL⁻¹ with M. tuberculosis H37Ra [5] (day 8) and 2e+08 mL⁻¹ in the assay on M. tuberculosis H37Ra [5] (day 11). Moreover, the “MTT data (OD readings at 570 nm)” value with M. tuberculosis H37Ra [6] (day 0) is listed as 0.2248 OD; with M. tuberculosis H37Ra [6] (day 5), 0.6287 OD; with M. tuberculosis H37Ra [6] (day 10), 1.4131 OD.
